Data: patent publication US12365684B2, “Short-acting benzodiazepine salts and their polymorphic forms” (priority 2006, dated 2025)
“And” between values parts separate entries of the source, which are not always exact repeats. Identical values can stand only once. Like-named read-outs stand apart in the source and are kept apart here.

How the values were obtained:
mice = assay: Anaesthetic and sedative effects: loss of the righting reflex (LRR) after i.v. administration; assay type: in vivo; conditions: for NUMBER OF MICE WITH LRR: eight mice per group; for LRR DURATION, mean: maximum = 90 minutes after injection
Experimental: The anaesthetic and sedative effects of the besylate salt Form 1 of the present invention was evaluated. The besylate (benzenesulfonic acid) salt was dissolved in physiological saline for administration of the test composition to the animal. The test composition was administered to mice, placed in individual Plexiglas cages (20×10×10 cm). Mice were injected with either vehicle or test substance by the intravenous route. The latency to sleep and the duration of anaesthesia (maximum: 90 minutes after test-substance administration) were recorded. Anaesthesia is indicated by loss of the righting reflex (LRR). The righting reflex test was performed as soon as the animals appear sedated, approximately every 20-30 seconds. Once the righting reflex is absent, duration of loss of righting reflex was measured by testing for the return of the righting reflex approximately every 20-30 seconds thereafter. Eight mice were studied per group and the test was performed blind.

[1] = Polymorphism maturation experiment (solvent slurries), HPLC purity post 1 week; assay type: physicochemical; conditions: heat/cool cycle ambient to 60° C., starting hplc purity 97.7%
Experimental: The solid was slurried in various solvents (see Table 11) for one week on a heat/cool cycle from ambient to 60° C. After one week the slurries were evaporated and the solids analysed by XRPD and HPLC.
• Method: Gradient, Reverse Phase • Method Duration/min: 34 • Column: Phenomenex Gemini C18 5 μm (2.0×50 mm) (Guard cartridge Phenomenex Gemini C18 guard cartridge 2×4 mm) • Column Temperature/° C.: 40 • Injection/μl: 5 • Flow Rate ml/min: 0.8 • Detection: UV • Wavelength/nm: 255 (bandwidth of 90 nm), 240 (bandwidth of 80 nm), 254 (bandwidth of 8 nm) • Phase A: 2 mmol NH4HCO3 (adjusted to pH10 with NH3 solution) Phase B: acetonitrile Timetable: […]

[2] = Gravimetric Vapour Sorption (GVS); assay type: physicochemical; conditions: 25° C., 0-90% RH range
Experimental: All samples were run on a Hiden IGASorp moisture sorption analyser running CFRSorp software. Sample sizes were typically 10 mg. A moisture adsorption desorption isotherm was performed as outlined below (2 scans giving 1 complete cycle). All samples were loaded/unloaded at typical room humidity and temperature (40% RH, 25° C.). All samples were analysed by XRPD post GVS analysis. The standard isotherm was performed at 25° C. at 10% RH intervals over a 0-90% RH range unless otherwise stated.

[3] = Thermodynamic aqueous solubility; assay type: physicochemical; conditions: water, 25° C., 24 hrs
Experimental: This was measured by suspending sufficient compound in 0.25 ml of solvent (water) to give a maximum final concentration of 10 mg/ml of the parent free form of the compound. The suspension was equilibrated at 25° C. for 24 hrs followed by a pH check and filtration through a glass fibre C 96 well plate. The filtrate is then diluted down 101x. Quantitation was by HPLC with reference to a standard dissolved in DMSO at approx 0.1 mg/ml. Different volumes of the standard, diluted and undiluted tests were injected. The solubility was calculated by integration of the peak area found at the same retention time as the peak maximum in the standard injection. If there is sufficient solid in the filter plate the XRPD is normally checked for phase changes, hydrate formation, amorphization, crystallization etc.

[4] = Observed solubility of compound of formula (I) besylate in solvents; assay type: physicochemical; conditions: approximate
Description: The compound also has an excess of Hydrogen bond acceptors and therefore will be suitably partnered by Hydrogen bond donating solvents. It is thus expected that the compound will prefer solubilisation in a range of polar organic solvents such as the alcohols, particularly those which provide a partially lipophillic, Hydrogen bond donating environment. This has been borne out by experimental evidence (details of solvents used are given in Example 8):
Values quoted are approximate, but experimentally confirmed.

[5] = Solid-state stability study of compound of formula (I) (appearance, HPLC content); assay type: physicochemical
Experimental: Method/Technique. 2 mg samples of compound of formula (I), accurately weighed, were placed in 4-mL clear glass screw-cap vials. Samples were tested at initial and after 34 days stored at 5° C./Ambient Relative Humidity (AMRH) Closed, 30° C./60% RH Closed, 40° C./75% RH Open and 60° C./AMRH Closed.

[6] = pKa determination (potentiometric titration, Sirius GlpKa); assay type: physicochemical; conditions: MeOH:H2O mixtures, MeOH:H2O mixtures at 25° C., extrapolated to 0% co-solvent
Experimental: pka determination was performed on a Sirius GlpKa instrument with D-PAS attachment. Measurements were made by potentiometric titration in MeOH:H2O mixtures at 25° C. The titration media was ionic strength adjusted with 0.15M KCl. The values found in the MeOH:H2O mixtures were extrapolated to 0% co-solvent via a Yasuda-Shedlovsky extrapolation.

COC(=O)CC[C@@H]1N=C(c2ccccn2)c2cc(Br)ccc2-n2c(C)cnc21.O=S(=O)(O)c1ccccc1 [besylate Form 1]
NUMBER OF MICE WITH LRR (mice; 20.4 mg/kg i.v.): 2
LRR DURATION, mean (mice; 20.4 mg/kg i.v.): 1.7 min
LATENCY TO LRR, mean ± s.e.m. (mice; 27.2 mg/kg i.v.): 3.0 ± 0.2 min
NUMBER OF MICE WITH LRR (mice; 27.2 mg/kg i.v.): 5+
LRR DURATION, mean (mice; 27.2 mg/kg i.v.): 4.9 min
LATENCY TO LRR, mean ± s.e.m. (mice; 34 mg/kg i.v.): 1.8 ± 0.2 min
NUMBER OF MICE WITH LRR (mice; 34 mg/kg i.v.): 6++
LRR DURATION, mean (mice; 34 mg/kg i.v.): 6.0 min
LATENCY TO LRR, mean ± s.e.m. (mice; 40.8 mg/kg i.v.): 1.6 ± 0.5 min
NUMBER OF MICE WITH LRR (mice; 40.8 mg/kg i.v.): 6++
LRR DURATION, mean (mice; 40.8 mg/kg i.v.): 7.3 min
HPLC purity post 1 week ([1]; slurried in 1,4-Dioxane): 97.2 % area
HPLC purity post 1 week ([1]; slurried in 2.5% aq 1,4-Dioxane): 86 % area
HPLC purity post 1 week ([1]; slurried in 2.5% aq DCM): 97.4 % area
HPLC purity post 1 week ([1]; slurried in 2.5% aq IPA): 76.1 % area
HPLC purity post 1 week ([1]; slurried in 2.5% aq MEK): 93.9 % area
HPLC purity post 1 week ([1]; slurried in 2.5% aq MIBK): 97.3 % area
HPLC purity post 1 week ([1]; slurried in 2.5% aq MeCN): 93.3 % area
HPLC purity post 1 week ([1]; slurried in 2.5% aq THF): 93.3 % area
HPLC purity post 1 week ([1]; slurried in 2.5% aq acetone): 96.8 % area
HPLC purity post 1 week ([1]; slurried in DCM): 97.4 % area
HPLC purity post 1 week ([1]; slurried in IPA): 97.1 % area
HPLC purity post 1 week ([1]; slurried in MEK): 97.2 % area
HPLC purity post 1 week ([1]; slurried in MIBK): 97.7 % area
HPLC purity post 1 week ([1]; slurried in MeCN): 94.3 % area
HPLC purity post 1 week ([1]; slurried in MtBE): 97.7 % area
HPLC purity post 1 week ([1]; slurried in THF): 97.6 % area
HPLC purity post 1 week ([1]; slurried in acetone): 97.5 % area
HPLC purity post 1 week ([1]; slurried in iPrOAc): 97.5 % area
GVS uptake [2]: 2.0%
solubility [3]: 8.3 mg/mL

COC(=O)CC[C@@H]1N=C(c2ccccn2)c2cc(Br)ccc2-n2c(C)cnc21.O=S(=O)(O)c1ccccc1 [compound of formula (I) besylate]
solubility ([4]; Water): 2 mg/mL
solubility ([4]; organic solvent or mixture, 1,2-ethanediol): 60 mg/mL
solubility ([4]; organic solvent or mixture, 1,4-dioxan): 1 mg/mL
solubility ([4]; organic solvent or mixture, 2,2,2-trifluoroethanol): 1000 mg/mL
solubility ([4]; organic solvent or mixture, 2-ethoxyethanol): 20 mg/mL
solubility ([4]; organic solvent or mixture, 2-methoxyethanol): 167 mg/mL
solubility ([4]; organic solvent or mixture, Acetone): 2 mg/mL
solubility ([4]; organic solvent or mixture, Acetonitrile): > 20 mg/mL
solubility ([4]; organic solvent or mixture, Chloroform): < 0.4 mg/mL
solubility ([4]; organic solvent or mixture, Dichloromethane): < 0.3 mg/mL
solubility ([4]; organic solvent or mixture, Dimethyl sulfoxide): 500 mg/mL
solubility ([4]; organic solvent or mixture, Dimethylacetamide): 200 mg/mL
solubility ([4]; organic solvent or mixture, Dimethylformamide): 300 mg/mL
solubility ([4]; organic solvent or mixture, Ethanol): 100 mg/mL
solubility ([4]; organic solvent or mixture, Ethyl acetate): 0.2 mg/mL
solubility ([4]; organic solvent or mixture, Formamide): 350 mg/mL
solubility ([4]; organic solvent or mixture, Hexafluoropropan-2-ol): > 700 mg/mL
solubility ([4]; organic solvent or mixture, Methanol): 400 mg/mL
solubility ([4]; organic solvent or mixture, Methylbenzoate): 2 mg/mL
solubility ([4]; organic solvent or mixture, Propan-1-ol): 15 mg/mL
solubility ([4]; organic solvent or mixture, Propan-2-ol): 4.8 mg/mL
solubility ([4]; organic solvent or mixture, Tetrahydrofuran): 2.5 mg/mL

COC(=O)CC[C@@H]1N=C(c2ccccn2)c2cc(Br)ccc2-n2c(C)cnc21 [compound of formula (I), Methyl 3-[(4S)-8-bromo-1-methyl-6-(2-pyridinyl)-4H-imidazol [1,2-a][1,4]benzodiazepin-4-yl]propanoate]
% Relative to Avg. Initial % area ([5]; 5 C./AMRH Closed, 34 days): 100.52%
Appearance ([5]; 5 C./AMRH Closed, 34 days): Cream to light yellow powder
Compound of Formula (I) Content % area ([5]; 5 C./AMRH Closed, 34 days): 95.30 % area
Compound of Formula (I) Content % w/w ([5]; 5 C./AMRH Closed, 34 days): 102.6 % w/w
% Relative to Avg. Initial % area ([5]; 30 C./60% RH Closed, 34 days): 99.36%
Appearance ([5]; 30 C./60% RH Closed, 34 days): Cream to light yellow powder
Compound of Formula (I) Content % area ([5]; 30 C./60% RH Closed, 34 days): 94.20 % area
Compound of Formula (I) Content % w/w ([5]; 30 C./60% RH Closed, 34 days): 94.7 % w/w
drop in content relative to the initial % area ([5]; 30° C./60% RH Closed, 34 days): approximately 0.6%
% Relative to Avg. Initial % area ([5]; 40 C./75% RH Open, 34 days): 98.57% and 98.50%
Compound of Formula (I) Content % area ([5]; 40 C./75% RH Open, 34 days): 93.45 % area and 93.39 % area
Compound of Formula (I) Content % w/w ([5]; 40 C./75% RH Open, 34 days): 105.4 % w/w and 100.3 % w/w
% Relative to Avg. Initial % area ([5]; 60 C./AMRH Closed, 34 days): 92.57%
Compound of Formula (I) Content % area ([5]; 60 C./AMRH Closed, 34 days): 87.77 % area
Compound of Formula (I) Content % w/w ([5]; 60 C./AMRH Closed, 34 days): 93.4 % w/w and 91.1 % w/w
decrease of average % w/w content from the initial value ([5]; 34 days at 60° C./AMRH Closed): 10 % w/w
Appearance ([5]; RT, initial): Cream to light yellow powder
Compound of Formula (I) Content % area ([5]; RT, initial): 95.14 % area and 94.47 % area
Compound of Formula (I) Content % w/w ([5]; RT, initial): 100.5 % w/w and 104.1 % w/w
Avg. Initial % area ([5]; RT, initial, average of two samples): Avg = 94.81 % area
time stable with respect to appearance and content ([5]; stored at 5° C./AMRH Closed): at least 34 days
pKa ([6]; read-out: pKa of the basic centre of the imidazole ring): ~5
pKa ([6]; read-out: pKa of the basic centre of the pyridine ring): ~2
